Source: patent publication US11285219B2, “Peptide-oligourea hybrid compounds” (UREKA SARL, priority 2019, dated 2022)
Entries after “also recorded” stand apart in the source; their conditions may differ. Numbered stars: 1 amine (or outer) side, 2 acyl side, 3 side chain; on linkers, the order of the positions; unused ones are H or OH. Bridge positions count the residues as written; N and C are the ends. Peptide text beside a SMILES is read from it. I, II: the chains in the order shown. X4 = C[C@@H](CNC(=O)[*:1])NC(=O)NC[C@H](CCC(=O)O)NC(=O)NC[C@H](Cc1ccc(O)cc1)N[*:2]; X3 = C[C@@H](CNC(=O)[*:1])NC(=O)NC[C@H](Cc1ccc(O)cc1)NC(=O)NC[C@H](C)N[*:2]; X5 = C[C@@H](CNC(=O)N[C@@H](C)CNC(=O)[*:2])NC(=O)NC[C@H](CCC(=O)O)N[*:1]

Assays:
[1] = molecular target: T1, mouse GLP-1 receptor endogenously expressed in βTC6 cells (Mus musculus, UniProt O35659); test: cAMP production functional assay (HTRF), agonist activity at GLP-1R; assay type: cell-based; settings: for Potency (%), percentage of potency (cAMP production) compared to GLP-1-G^2: Table 2; for Potency (%), percentage of potency compare to GLP-1-G^2: cAMP production, Table 1; for EC50: receptor-mediated cAMP production, βTC6 cells, read-out: EC50 (nM), GLP-1R potency
T1 construct: host or cells: βTC6 cells
T1 sequence (O35659 22-463): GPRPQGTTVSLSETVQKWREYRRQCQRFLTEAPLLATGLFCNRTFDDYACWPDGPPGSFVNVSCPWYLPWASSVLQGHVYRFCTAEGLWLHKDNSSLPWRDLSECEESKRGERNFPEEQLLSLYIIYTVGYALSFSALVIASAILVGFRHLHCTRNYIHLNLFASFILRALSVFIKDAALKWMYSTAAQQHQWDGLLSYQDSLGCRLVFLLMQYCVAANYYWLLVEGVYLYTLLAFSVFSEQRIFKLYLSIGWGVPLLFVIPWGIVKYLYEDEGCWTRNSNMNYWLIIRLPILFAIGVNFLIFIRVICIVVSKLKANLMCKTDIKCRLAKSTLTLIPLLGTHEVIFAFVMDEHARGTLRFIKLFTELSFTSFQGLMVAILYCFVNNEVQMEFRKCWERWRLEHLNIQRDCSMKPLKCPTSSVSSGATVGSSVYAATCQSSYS
Procedure: The agonistic activity of these hybrids were obtained by functional assays using cells expressing the […] and by measuring the receptor-mediated cAMP produced (see supporting information).
In vitro pharmacology (EC50). […] Following incubation, the cells were lysed and the fluorescence acceptor (D2-labeled cAMP) and fluorescence donor (anti-cAMP antibody labeled with europium cryptate) were added.

[2] = molecular target: NEP 24.11 (Homo sapiens, UniProt P08473); test: NEP 24.11 enzymatic degradation assay; settings: pH 8
Procedure: Enzymatic and mouse plasma degradation studies.
Enzymatic degradation (NEP 24.11). Stock solutions of the oligomers were prepared at a concentration of 400 μM in a solution of 50 mM HEPES buffer, 50 mM NaCl, 0.05% Tween-80, pH 8.0. Stock solution of NEP 24.11 was prepared at a concentration of 100 μg/mL in water. Stability of oligomers to NEP 24.11 was assessed by conducting protease reaction in a 96-well plates at 20° C. […] Each compound was also incubated in the absence of the enzyme (12 μL of HEPES buffer and 38 μL of oligomer). At the indicated time (1, 2, 4, 6 and 22 hours) an aliquot of 10 μL was removed from each experimental reaction and pipetting into 100 μL of 1% TFA solution to quench the reaction, (t=0 min was determined using the reaction without enzyme). A portion of the quenched reaction solution was analyzed by HPLC. The time course of peptide degradation was determined by integrating the area of each peak in a series of HPLC traces.

[3] = test system: normal mice (C57BL/6J); test: Blood glucose experiment in healthy mice; assay type: in vivo, mouse; design: key to In vivo activity (indicator): + = active; +++: + + + = more active; settings: for effect on blood glucose concentration: fed normal mice, 5 μg/mouse i.v., monitored 6 h; for In vivo activity (indicator): blood glucose, mice, i.v.
Procedure: In the first study, we evaluated the effect of the analogues on the blood glucose concentration of normal mice (FIG. 4). The fed mice were treated with the analogues and their blood glucose concentration was monitored before and after dosing for 6 h. […] Indeed, a decrease of blood glucose concentration is observed after 30 min and the effect is preserved for 4 h after dosing.
Blood glucose experiment in healthy mice. After the acclimation period (at least 5 days), mice (male C57BL/6J mice (Charles River laboratories) (8 weeks old, 20-25 g)) were randomized into 10 groups (n=3/group) according to their body weight. They were acutely treated via i.v. route at 10 AM (5 μg/mouse). Blood glucose was measured before dosing and at 30 min, 1, 2, 4, 6 h after dosing in fed conditions.

Chain of NEP 24.11 (P08473 whole entry): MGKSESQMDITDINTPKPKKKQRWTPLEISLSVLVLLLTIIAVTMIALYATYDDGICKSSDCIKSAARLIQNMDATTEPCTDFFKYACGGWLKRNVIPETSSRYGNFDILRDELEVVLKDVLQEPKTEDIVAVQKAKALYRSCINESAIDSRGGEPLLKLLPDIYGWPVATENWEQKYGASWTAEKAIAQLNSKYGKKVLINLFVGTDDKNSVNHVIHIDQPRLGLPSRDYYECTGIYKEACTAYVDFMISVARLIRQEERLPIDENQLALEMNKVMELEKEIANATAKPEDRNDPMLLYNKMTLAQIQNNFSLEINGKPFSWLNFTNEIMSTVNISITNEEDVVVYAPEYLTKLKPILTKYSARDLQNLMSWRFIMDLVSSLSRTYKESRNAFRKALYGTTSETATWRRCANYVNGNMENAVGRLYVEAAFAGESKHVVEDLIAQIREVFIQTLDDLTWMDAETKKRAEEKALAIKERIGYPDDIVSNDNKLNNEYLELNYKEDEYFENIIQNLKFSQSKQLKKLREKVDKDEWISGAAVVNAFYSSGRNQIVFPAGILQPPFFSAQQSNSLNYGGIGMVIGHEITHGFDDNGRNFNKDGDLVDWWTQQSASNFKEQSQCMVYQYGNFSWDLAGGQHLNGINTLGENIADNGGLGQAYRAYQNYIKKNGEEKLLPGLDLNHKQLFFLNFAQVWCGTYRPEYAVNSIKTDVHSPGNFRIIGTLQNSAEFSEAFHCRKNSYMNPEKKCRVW

Structure (SMILES)	loss of affinity with GLP-1R compared to the native peptide [1]	Potency (%), percentage of potency (cAMP production) compared to GLP-1-G^2 [1]	Potency (%), percentage of potency compare to GLP-1-G^2 [1]	EC50 [1]	half-life at […] [2]	effect on blood glucose concentration [3]	In vivo activity (indicator) [3]
CC[C@H](C)[C@H](NC(=O)[C@H](Cc1ccccc1)NC(=O)[C@H](CCC(=O)O)NC(=O)[C@H](CCCCN)NC(=O)[C@H](C)NC(=O)[C@H](C)NC(=O)[C@H](CCC(N)=O)NC(=O)CNC(=O)[C@H](CCC(=O)O)NC(=O)[C@H](CC(C)C)NC(=O)[C@H](Cc1ccc(O)cc1)NC(=O)NC[C@H](C)NC(=O)NC[C@H](C)NC(=O)N[C@@H](CNC(=O)[C@H](CO)NC(=O)[C@@H](NC(=O)[C@H](Cc1ccccc1)NC(=O)[C@@H](NC(=O)CNC(=O)[C@H](CCC(=O)O)NC(=O)CNC(=O)[C@@H](N)Cc1c[nH]cn1)[C@@H](C)O)[C@@H](C)O)CC(=O)O)C(=O)N[C@@H](C)C(=O)N[C@@H](Cc1c[nH]c2ccccc12)C(=O)N[C@@H](CC(C)C)C(=O)N[C@H](C(=O)N[C@@H](CCCCN)C(=O)NCC(=O)N[C@@H](CCCNC(=N)N)C(=O)NCC(N)=O)C(C)C [Compound 2, GG2[D^UαA^UA^U]^9-12]	over a hundred fold loss	2%	2%	13 nM	216 min	no activity; also recorded: no effect	
CC[C@H](C)[C@H](NC(=O)[C@H](Cc1ccccc1)NC(=O)[C@H](CCC(=O)O)NC(=O)[C@H](CCCCN)NC(=O)[C@H](C)NC(=O)[C@H](C)NC(=O)[C@H](CCC(N)=O)NC(=O)CNC(=O)[C@H](CCC(=O)O)NC(=O)NC[C@H](C)NC(=O)NC[C@H](Cc1ccc(O)cc1)NC(=O)NC[C@H](C)NC(=O)[C@@H](NC(=O)[C@H](CC(=O)O)NC(=O)[C@H](CO)NC(=O)[C@@H](NC(=O)[C@H](Cc1ccccc1)NC(=O)[C@@H](NC(=O)CNC(=O)[C@H](CCC(=O)O)NC(=O)CNC(=O)[C@@H](N)Cc1c[nH]cn1)[C@@H](C)O)[C@@H](C)O)C(C)C)C(=O)N[C@@H](C)C(=O)N[C@@H](Cc1c[nH]c2ccccc12)C(=O)N[C@@H](CC(C)C)C(=O)N[C@H](C(=O)N[C@@H](CCCCN)C(=O)NCC(=O)N[C@@H](CCCNC(=N)N)C(=O)NCC(N)=O)C(C)C [Compound 5, GG2[A^UY^UA^U]^11-14] (I: EGQAAKEFIAWLVKGRG-NH2 / II: H-HGEGTFTSDV; linker I:N-II:C via X3)		15%	15%		174 min	efficacy but no improvement	+
CC[C@H](C)[C@H](NC(=O)[C@H](Cc1ccccc1)NC(=O)[C@H](CCC(=O)O)NC(=O)[C@H](CCCCN)NC(=O)[C@H](C)NC(=O)[C@H](C)NC(=O)NC[C@H](C)NC(=O)NC[C@H](CCC(=O)O)NC(=O)NC[C@H](Cc1ccc(O)cc1)NC(=O)[C@H](Cc1ccc(O)cc1)NC(=O)[C@H](CO)NC(=O)[C@H](CO)NC(=O)[C@@H](NC(=O)[C@H](CC(=O)O)NC(=O)[C@H](CO)NC(=O)[C@@H](NC(=O)[C@H](Cc1ccccc1)NC(=O)[C@@H](NC(=O)CNC(=O)[C@H](CCC(=O)O)NC(=O)CNC(=O)[C@@H](N)Cc1c[nH]cn1)[C@@H](C)O)[C@@H](C)O)C(C)C)C(=O)N[C@@H](C)C(=O)N[C@@H](Cc1c[nH]c2ccccc12)C(=O)N[C@@H](CC(C)C)C(=O)N[C@H](C(=O)N[C@@H](CCCCN)C(=O)NCC(=O)N[C@@H](CCCNC(=N)N)C(=O)NCC(N)=O)C(C)C [Compound 9, GG2[Y^UE^UA^U]^14-17] (I: AAKEFIAWLVKGRG-NH2 / II: H-HGEGTFTSDVSSY; linker I:N-II:C via X4)		135%	135%	0.18 nM		efficacy but no improvement	+
CC[C@H](C)[C@H](NC(=O)[C@H](Cc1ccccc1)NC(=O)[C@H](CCC(=O)O)NC(=O)[C@H](CCCCN)NC(=O)[C@H](C)NC(=O)NC[C@H](C)NC(=O)NC[C@H](C)NC(=O)NC[C@H](CCC(=O)O)NC(=O)[C@H](CC(C)C)NC(=O)[C@H](Cc1ccc(O)cc1)NC(=O)[C@H](CO)NC(=O)[C@H](CO)NC(=O)[C@@H](NC(=O)[C@H](CC(=O)O)NC(=O)[C@H](CO)NC(=O)[C@@H](NC(=O)[C@H](Cc1ccccc1)NC(=O)[C@@H](NC(=O)CNC(=O)[C@H](CCC(=O)O)NC(=O)CNC(=O)[C@@H](N)Cc1c[nH]cn1)[C@@H](C)O)[C@@H](C)O)C(C)C)C(=O)N[C@@H](C)C(=O)N[C@@H](Cc1c[nH]c2ccccc12)C(=O)N[C@@H](CC(C)C)C(=O)N[C@H](C(=O)N[C@@H](CCCCN)C(=O)NCC(=O)N[C@@H](CCCNC(=N)N)C(=O)NCC(N)=O)C(C)C [Compound 11, GG2[E^UA^UA^U]^15-18] (I: H-HGEGTFTSDVSSYL / II: AKEFIAWLVKGRG-NH2; linker I:C-II:N via X5)		13%	13%		234 min	no activity; also recorded: no effect	
CC[C@H](C)[C@@H](CNC(=O)N[C@@H](C)CNC(=O)N[C@@H](CC(C)C)C(=O)N[C@H](C(=O)N[C@@H](CCCCN)C(=O)NCC(=O)N[C@@H](CCCNC(=N)N)C(=O)NCC(N)=O)C(C)C)NC(=O)N[C@@H](CNC(=O)[C@H](CCC(=O)O)NC(=O)[C@H](CCCCN)NC(=O)[C@H](C)NC(=O)[C@H](C)NC(=O)[C@H](CCC(N)=O)NC(=O)CNC(=O)[C@H](CCC(=O)O)NC(=O)[C@H](CC(C)C)NC(=O)[C@H](Cc1ccc(O)cc1)NC(=O)[C@H](CO)NC(=O)[C@H](CO)NC(=O)[C@@H](NC(=O)[C@H](CC(=O)O)NC(=O)[C@H](CO)NC(=O)[C@@H](NC(=O)[C@H](Cc1ccccc1)NC(=O)[C@@H](NC(=O)CNC(=O)[C@H](CCC(=O)O)NC(=O)CNC(=O)[C@@H](N)Cc1c[nH]cn1)[C@@H](C)O)[C@@H](C)O)C(C)C)Cc1ccccc1 [Compound 16, GG2[F^UαI^UA^U]^22-25]	over a hundred fold loss	0.4%	0.4%	62 nM	108 min	no activity; also recorded: no effect	
CC[C@H](C)[C@H](NC(=O)[C@H](Cc1ccccc1)NC(=O)[C@H](CCC(=O)O)NC(=O)[C@H](CCCCN)NC(=O)[C@H](C)NC(=O)[C@H](C)NC(=O)[C@H](CCC(N)=O)NC(=O)CNC(=O)[C@H](CCC(=O)O)NC(=O)[C@H](CC(C)C)NC(=O)[C@H](Cc1ccc(O)cc1)NC(=O)[C@H](CO)NC(=O)[C@H](CO)NC(=O)[C@@H](NC(=O)[C@H](CC(=O)O)NC(=O)[C@H](CO)NC(=O)[C@@H](NC(=O)[C@H](Cc1ccccc1)NC(=O)[C@@H](NC(=O)CNC(=O)[C@H](CCC(=O)O)NC(=O)CNC(=O)[C@@H](N)Cc1c[nH]cn1)[C@@H](C)O)[C@@H](C)O)C(C)C)C(=O)NC(C)CNC(=O)NC(C)CNC(=O)NC(C)CNC(=O)N[C@@H](CCCCN)C(=O)NCC(=O)N[C@@H](CCCNC(=N)N)C(=O)NCC(N)=O (stereo partly drawn) [Compound 18, GG2[A^UA^UA^U]^24-27]			<0.01%				
